Key:
[1] = system: liver HepG-2 cancer cell line; experiment: In vitro cytotoxic activity (MTT assay), HepG-2; conditions: for IC50: Homo sapiens, HepG2, read-out: IC50 (mean ± SD) HepG-2
Text: (§1) The supplemental file contained extra details.

[2] = system: breast MCF-7 cancer cell line; experiment: In vitro cytotoxic activity (MTT assay), MCF-7; format: cell-based, human; conditions: for inhibition at 100 µM / IC50: Homo sapiens, MCF7; for inhibition at 100 µM: 48 h, read-out: % inhibition ± SD MCF-7; for IC50: MCF-7 cells, MTT, read-out: IC50 (mean ± SD) MCF-7
Text: as §1

[3] = system: colorectal HCT-116 cancer cell line; experiment: In vitro cytotoxic activity (MTT assay), HCT-116; format: cell-based, human; conditions: for inhibition at 100 µM / IC50: Homo sapiens; for inhibition at 100 µM: HCT-116, 48 h, read-out: % inhibition ± SD HCT-116; for IC50: HCT-116 cells, MTT, read-out: IC50 (mean ± SD) HCT-116
Text: as §1

[4] = system: retinal pigment epithelial normal RPE-1 cell line; experiment: Cytotoxic activity (MTT assay) against normal cell line RPE-1; format: cell-based; conditions: Homo sapiens, normal RPE-1 cells, read-out: IC50 (mean ± SD) RPE-1
Text: Furthermore, the MTT assay was utilized to estimate the cytotoxic activity of the extremely potent derivatives 4, 7 and 9 against the normal cell line RPE-1, with the aim of examining their safety profiles (Table 1). […] They could therefore be thought of as safe cytotoxic agents.
as §1

[5] = molecular target: VEGFR-2 (Homo sapiens, UniProt P35968); experiment: In vitro inhibitory assessment against VEGFR-2 (ELISA, MCF-7 cell homogenates); format: cell-based; conditions: read-out: IC50 (mean ± SD) VEGFR-2
Sequence of VEGFR-2 (P35968 20-1356): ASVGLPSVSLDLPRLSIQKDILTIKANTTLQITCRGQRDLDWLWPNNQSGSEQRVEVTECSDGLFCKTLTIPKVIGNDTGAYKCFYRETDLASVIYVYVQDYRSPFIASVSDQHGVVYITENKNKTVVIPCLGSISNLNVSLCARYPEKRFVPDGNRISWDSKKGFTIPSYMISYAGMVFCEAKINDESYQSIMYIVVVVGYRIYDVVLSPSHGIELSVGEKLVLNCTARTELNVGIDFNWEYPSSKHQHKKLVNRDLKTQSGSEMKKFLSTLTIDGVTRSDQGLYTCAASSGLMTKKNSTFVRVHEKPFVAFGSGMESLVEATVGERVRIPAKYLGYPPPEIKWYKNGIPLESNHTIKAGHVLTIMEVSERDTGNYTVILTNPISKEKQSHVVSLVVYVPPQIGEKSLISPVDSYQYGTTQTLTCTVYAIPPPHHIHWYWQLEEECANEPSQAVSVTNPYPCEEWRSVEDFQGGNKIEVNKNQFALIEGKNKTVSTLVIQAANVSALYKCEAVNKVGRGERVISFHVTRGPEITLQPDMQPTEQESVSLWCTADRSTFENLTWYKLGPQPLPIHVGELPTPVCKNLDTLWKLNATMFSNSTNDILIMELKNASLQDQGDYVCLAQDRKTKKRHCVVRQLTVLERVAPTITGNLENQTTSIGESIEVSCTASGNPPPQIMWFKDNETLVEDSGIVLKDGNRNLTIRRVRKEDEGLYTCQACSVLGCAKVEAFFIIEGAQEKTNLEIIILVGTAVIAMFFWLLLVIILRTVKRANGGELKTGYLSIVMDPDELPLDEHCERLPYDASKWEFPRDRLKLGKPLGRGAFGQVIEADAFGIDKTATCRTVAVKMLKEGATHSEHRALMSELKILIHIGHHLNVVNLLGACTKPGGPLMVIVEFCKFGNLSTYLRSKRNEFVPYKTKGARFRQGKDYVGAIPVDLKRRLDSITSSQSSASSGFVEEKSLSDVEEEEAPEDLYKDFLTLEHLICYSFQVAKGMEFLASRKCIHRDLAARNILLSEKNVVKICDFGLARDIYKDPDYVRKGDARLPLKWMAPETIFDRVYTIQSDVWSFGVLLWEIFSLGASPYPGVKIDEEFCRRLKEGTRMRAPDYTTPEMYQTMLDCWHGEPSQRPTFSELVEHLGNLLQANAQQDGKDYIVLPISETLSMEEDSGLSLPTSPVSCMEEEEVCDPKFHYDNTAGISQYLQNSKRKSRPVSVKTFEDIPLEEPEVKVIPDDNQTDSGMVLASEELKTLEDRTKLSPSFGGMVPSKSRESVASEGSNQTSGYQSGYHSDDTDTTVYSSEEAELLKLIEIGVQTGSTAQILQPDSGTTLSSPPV
Method: (§2) There was further information in the supplemental file.
The cells were harvested and the homogenates were prepared in saline using a tight pestle homogenizer until complete cell disruption. The kit uses a double-antibody sandwich enzyme-linked immunosorbent assay (ELISA) to determine the level of human VEGFR-2 in samples. A monoclonal antibody for VEGFR-2 was pre-coated onto 96-well plates. The test samples are added to the wells and a biotinylated detection polyclonal antibody from goat specific for VEGFR-2 was added subsequently followed by washing with PBS buffer. Avidin-Biotin-Peroxidase complex was added and the unbound conjugates were washed away with PBS buffer. HRP substrate TMB was used to visualize HRP enzymatic reaction. TMB was catalyzed by HRP to produce a blue color product that changed into yellow after adding acidic stop solution. The density of yellow color is proportional to the human VEGFR-2 amount of the sample captured in the plate. The chroma of color and the concentration of the human VEGFR-2 of the samples were positively correlated and the optical density was determined at 450 nm. The level of human VEGFR-2 in samples was calculated (pg/ml) as duplicate determinations from the standard curve. Percent inhibition was calculated in comparison to control untreated cells.

[6] = molecular target: T1, hCA IX (Homo sapiens, UniProt Q16790); experiment: Carbonic anhydrase inhibition, stopped-flow CO2 hydration, hCA IX; format: biochemical; conditions: read-out: IC50 (mean ± SD) Carbonic anhydrase isoforms hCA IX
T1 construct: made in house
Method: as §2
(§3) An applied photophysics stopped-flow instrument was used for assaying the CA-catalyzed CO2 hydration activity. […] The CO2 concentrations ranged from 1.7 to 17 mM for the determination of the kinetic parameters and inhibition constants. For each inhibitor, at least six traces of the initial 5–10% of the reaction were used for determining the initial rate. The uncatalyzed rates were determined in the same manner and subtracted from the total observed rates. Stock solutions of inhibitor (0.1 mM) were prepared in distilled-deionized water, and dilutions up to 0.01 nM were done thereafter with distilled-deionized water. Inhibitor and enzyme solutions were preincubated together for 15 min at room temperature before assay in order to allow for the formation of the E-I complex. The inhibition constants were obtained by nonlinear least-squares methods using PRISM 3, and the Cheng –Prusoff equation, and represent the mean from at least three different determinations. All CA isoforms were recombinant ones obtained in-house.

[7] = molecular target: T2, hCA XII (Homo sapiens, UniProt O43570); experiment: Carbonic anhydrase inhibition, stopped-flow CO2 hydration, hCA XII; format: biochemical; conditions: read-out: IC50 (mean ± SD) Carbonic anhydrase isoforms hCA XII
T2 construct: made in house
T2 sequence (O43570 25-354): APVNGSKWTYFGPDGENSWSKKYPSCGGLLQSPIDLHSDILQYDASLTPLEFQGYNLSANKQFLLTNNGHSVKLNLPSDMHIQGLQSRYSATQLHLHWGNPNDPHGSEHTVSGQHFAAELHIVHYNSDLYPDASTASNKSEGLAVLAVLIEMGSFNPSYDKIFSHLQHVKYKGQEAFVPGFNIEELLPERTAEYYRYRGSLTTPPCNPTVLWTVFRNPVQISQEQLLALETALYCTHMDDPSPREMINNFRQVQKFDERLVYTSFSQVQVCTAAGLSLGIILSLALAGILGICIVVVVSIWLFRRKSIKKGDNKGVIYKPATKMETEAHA
Method: as §2, §3

[8] = system: lung A-549 cancer cell line; experiment: In vitro cytotoxic activity (MTT assay), A-549; conditions: for inhibition at 100 µM / IC50: Homo sapiens; for inhibition at 100 µM: A549, 48 h, read-out: % inhibition ± SD A-549; for IC50: A549, read-out: IC50 (mean ± SD) A-549
Method: Exponentially, cells were placed in 10^4 cells/ well for 24 h, and then add fresh medium which containing different concentration of the tested sample. Serial two-fold dilution of the tested sample were added using a multichannel pipette. […] Rinse the wells using water until no stain. After that, add 30% glacial acetic acid to all wells with shaking plates on Microplate reader (TECAN, Inc.) to measure the absorbance, using a test wavelength of 490 nm. Besides, compare the treated samples with the control cell.

Row | SMILES | percentage cytotoxicity on HepG-2 ([1]; 12.5 µM) [%] | percentage cytotoxicity on HepG-2 ([1]; 25 µM) [%] | percentage cytotoxicity on HepG-2 ([1]; 50 µM) [%] | percentage cytotoxicity on HepG-2 ([1]; 100 µM) [%] | IC50 [1] [µM] | percentage cytotoxicity on MCF-7 ([2]; 12.5 µM) [%] | percentage cytotoxicity on MCF-7 ([2]; 25 µM) [%] | percentage cytotoxicity on MCF-7 ([2]; 50 µM) [%] | percentage cytotoxicity on MCF-7 ([2]; 100 µM) [%] | inhibition at 100 µM ([2]; 100 µM) [%] | IC50 [2] [µM] | percentage cytotoxicity on HCT-116 ([3]; 12.5 µM) [%] | percentage cytotoxicity on HCT-116 ([3]; 25 µM) [%] | percentage cytotoxicity on HCT-116 ([3]; 50 µM) [%] | percentage cytotoxicity on HCT-116 ([3]; 100 µM) [%] | inhibition at 100 µM ([3]; 100 µM) [%] | IC50 [3] [µM] | IC50 [4] [µM] | IC50 [5] [µM] | IC50 [6] [µM] | also measured
1 | CC(=O)OC[C@H]1O[C@@H](OCc2cn(-c3ccc(S(=O)(=O)NC4CCCCC4)cc3)nn2)[C@H](OC(C)=O)[C@@H](OC(C)=O)[C@H]1OC(C)=O [Compound 7, N-cyclohexyl-4-(4-([2,3,4,6-tetra-O-acetyl-β-D-galactopyranosyl]oxymethyl)-1H-1,2,3-triazol-1-yl)benzenesulfonamide] | 84.09±0.85 | 85.07±0.05 | 85.58±0.88 | 87.60±1.73 | 10.5 ± 0.13 | 30.37±3.66 | 55.90±1.44 | 88.77±2.70 | 98.89±0.19 | 98.89 ± 0.19 | 20.3 ± 0.66 | 32.50±1.25 | 48.80±0.95 | 50.70±0.70 | 75.70±0.96 | 75.7 ± 0.96 | 32 ± 0.42 | 82.58 ± 0.52 | 1.33 ± 0.1 | 0.066 | IC50 [7]: 0.0076 µM; percentage cytotoxicity on A-549 ([8]; 12.5 µM): 12.60±0.82%; percentage cytotoxicity on A-549 ([8]; 25 µM): 29.31±0.02%; percentage cytotoxicity on A-549 ([8]; 50 µM): 60.23±1.47%; percentage cytotoxicity on A-549 ([8]; 100 µM): 94.10±0.51%; inhibition at 100 µM [8]: 94.1 ± 0.51%; IC50 [8]: 20.4 ± 0.28 µM
2 | [N-]=[N+]=Nc1ccc(S(=O)(=O)NC2CCCCC2)cc1 [Compound 4, 4-Azido-N-cyclohexylbenzenesulfonamide] | 85.13±1.65 | 86.23±0.98 | 85.67±2.50 | 87.30±0.91 | 12.5 ± 0.51 | 35.03±2.83 | 58.31±3.30 | 78.50±0.37 | 91.20±0.09 | 91.2 ± 0.09 | 19.6 ± 1.1 | 34.64±0.48 | 51.93±0.58 | 86.90±0.28 | 94.83±0.87 | 94.83 ± 0.87 | 20.3 ± 0.33 | 78.3 ± 1.56 | 181 ± 0.66 | 0.142 | IC50 [7]: 0.0359 µM; melting point: 65 to 67 °C; percentage cytotoxicity on A-549 ([8]; 12.5 µM): 21.37±1.55%; percentage cytotoxicity on A-549 ([8]; 25 µM): 34.87±0.75%; percentage cytotoxicity on A-549 ([8]; 50 µM): 70.87±1.63%; percentage cytotoxicity on A-549 ([8]; 100 µM): 97.43±0.67%; inhibition at 100 µM [8]: 97.43 ± 0.67%; IC50 [8]: 30.9 ± 0.65 µM

— publication PMC11156913, “New sulfonamide-based glycosides incorporated 1,2,3-triazole as cytotoxic agents through VEGFR-2 and carbonic anhydrase inhibitory activity” (Scientific Reports, 2024)
